From patent publication US10047067B2, “Composition for treating kidney disease comprising pyrazole derivative” (Ewha University-Industry Collaboration Foundation, priority 2012, dated 2018)
Blank lines part the entries; values can stand above or below the molecule they belong to.

System: collagen Iα1 expression in proximal tubular cells (mProx24)
Test: Inhibitory effect on collagen Iα1 expression in proximal tubular cells (hTGF-β1 stimulated, real-time PCR)
Type: cell-based
Conditions: for mrna remaining at 0.01 µM / mrna remaining at 0.1 µM / mrna remaining at 1 µM / mrna remaining at 10 µM / inhibition at 0.01 µM / inhibition at 0.1 µM / inhibition at 1 µM / inhibition at 10 µM / IC50: Mus musculus; for mrna remaining at 0.01 µM / mrna remaining at 0.1 µM / mrna remaining at 1 µM / mrna remaining at 10 µM: Col1, mProx24, 5 ng/ml hTGF-β1 6 hrs, relative to hTGF-β1 alone = 1, read-out: Mean expression level ratio of collagen Iα1 (Col1α) to 18S rRNA; for mrna remaining at 0.01 µM / inhibition at 0.01 µM: 0.01 μM compound; for mrna remaining at 0.1 µM / inhibition at 0.1 µM: 0.1 μM compound; for mrna remaining at 1 µM / inhibition at 1 µM: 1 μM compound; for mrna remaining at 10 µM / inhibition at 10 µM: 10 μM compound; for inhibition at 0.01 µM / inhibition at 0.1 µM / inhibition at 1 µM / inhibition at 10 µM: mProx24, 100% = control without hTGF-β1, 0% = hTGF-β1 alone, read-out: expression inhibition rate (collagen Iα1); for IC50: mProx24, hTGF-β1 stimulated, read-out: IC50 (inhibition of collagen Iα1 expression)
Procedure: mProx24, which is a name of the proximal tubular cells derived from proximal tubule segments obtained by finely sectioning the kidney of adult C57BL6/J mice, was granted from Professor Sugaya, St. Marianna University School of Medicine, Kanagawa, Japan. mProx24 was cultured in DMEM (Dulbecco's modified Eagle's medium) supplemented with 10% fetal calf serum (FCS, Gibco), 100 U/ml penicillin, 100 μg/ml streptomycin, and 44 mM NaHCO3 at 37° C. in a 5% CO2 atmosphere. For quantitation of RNA expression, the cells were cultured in 6-well plates. When the cells grew 90% confluent, the medium was changed with a fresh 0.15% FCS (Gibco)-supplemented DMEM. Incubation in this medium for 24 hrs halted the cell growth to synchronize the growth cycle in the cells. Compounds of Examples 1 to 9 and Comparative Example were respectively dissolved in DMSO (dimethylsulfoxide) to form a concentration of 50 mM, and subjected to serial dilution to 10 mM, 1 mM, 0.1 mM, and 0.01 mM. 10 mM, 1 mM, 0.1 mM, and 0.01 mM solutions of each of the compounds of Examples 1 to 9 and Comparative Example were 1,000-fold diluted in 0.15% FCS (Gibco)-supplemented DMEM to form final concentrations of 10 μM, 1 μM, 0.1 μM, and 0.01 μM, respectively. In addition, 0 μM (DMSO 1 μL) was used. The cells were incubated for 1 hr in the dilutions and then for 6 hrs in the presence of 5 ng/ml recombinant human transforming growth factor-β1 (hTGF-β1, R&D Systems). For the control, hTGF-β1 was not used. Total RNA was extracted from mProx24 using Trizol (Invitrogen). For quantitation of mRNA expression, a reaction volume of 20 μL including cDNA transcripts, primer pairs, and SYBR Green PCR Master Mix (Applied Biosystems) was subjected to real-time PCR with the aid of StepOnePlus (Applied Biosystems) (real-time PCR condition: 95° C., 10 min→40 thermal cycles of denaturation at 95° C. for 15 sec and primer annealing at 60° C. for 1 min→95° C. for 15 sec, 60° C. for 1 min, and 95° C. for 15 sec to measure a melting curve). Quantitation was normalized to 18S rRNA expression level. A pair of primers for mouse collagen Iα1 were 5′-[…]-3′(SEQ ID NO: 13) and 5′-[…]-3′ (SEQ ID NO: 14). Forward and reverse primers for mouse r18S rRNA were 5′-CGAAAGCATTTGCCAAGAAT-3′ (SEQ ID NO: 11) and 5′-AGTCGGCATCGTTTATGGTC-3′ (SEQ ID NO: 12), respectively.
Experiment results are given in Tables 3 to 12 and FIGS. 4 to 13. Tables 3 to 12 and FIGS. 4 to 13 show inhibitory effects of the compounds of Examples 1 to 9 and Comparative Example 1 on collagen Iα1 expression in proximal tubular cells.
Data of Tables 3 to 12 and FIGS. 4 to 13 are measurements of experiments repeated three to five times for each concentration, and are expressed as mean±standard error (SE). Statistic comparison among the groups was analyzed by ANOVA and Fisher's least significant difference test, with significance at p<0.05. *P<0.05 vs. WT, †P<0.05 vs. DM.
In Tables 3 to 12, mean values of expression level ratios of collagen Iα1 (Col1α) to 18S rRNA (18S), and % inhibition against collagen Iα1 expression for each group are shown, together with IC50 value (μM). In this regard, % inhibition means relative inhibition to 100% for the control and 0% for the group that was treated with hTGF-β1 but not with any of the compounds of Examples or Comparative Example.

- IC50: 0.299 µM
SMILES: CC(=O)Oc1cc(-c2ccc(Br)cc2)nn1-c1ccccn1 [Compound 18-067, 3-(4-bromophenyl)-1-(pyridin-2-yl)-1H-pyrazol-5-yl acetate]
- mrna remaining at 0.01 µM: 70%
- mrna remaining at 0.1 µM: 60.7%
- mrna remaining at 1 µM: 56.2%
- mrna remaining at 10 µM: 32.5%
- inhibition at 0.01 µM: 35.6%
- inhibition at 0.1 µM: 46.6%
- inhibition at 1 µM: 52%
- inhibition at 10 µM: 80.1%

- IC50: 0.078 µM
SMILES: Oc1cc(-c2ccc(-c3ccccc3)cc2)nn1-c1ncccn1 [Compound 18-186, 3-(biphenyl-4-yl)-1-(pyrimidin-2-yl)-1H-pyrazol-5-ol]
- mrna remaining at 0.01 µM: 82.5%
- mrna remaining at 0.1 µM: 56.9%
- mrna remaining at 1 µM: 58.6%
- mrna remaining at 10 µM: 58.3%
- inhibition at 0.01 µM: 22.5%
- inhibition at 0.1 µM: 55.4%
- inhibition at 1 µM: 53.2%
- inhibition at 10 µM: 53.6%

- IC50: 1.78 µM
SMILES: CCCc1c(/C=C/c2ccc(O)c(OC)c2)nn(-c2ccccn2)c1O [Compound 18-273, 3-{2-(4-hydroxy-3-methoxyphenyl)vinyl}-4-propyl-1-(2-pyridinyl)pyrazol-5-ol]
- mrna remaining at 0.01 µM: 40.8%
- mrna remaining at 0.1 µM: 83.5%
- mrna remaining at 1 µM: 83.2%
- mrna remaining at 10 µM: 46%
- inhibition at 0.01 µM: 82.6%
- inhibition at 0.1 µM: 23%
- inhibition at 1 µM: 23.4%
- inhibition at 10 µM: 75.3%

- IC50: 1.31 µM
SMILES: Oc1cc(-c2ccccc2-c2ccc3c(c2)OCO3)nn1-c1ccccn1 [Compound 18-177, 3-(2-(benzo[d][1,3]dioxol-5-yl)phenyl)-1-(pyridin-2-yl)-1H-pyrazol-5-ol]
- mrna remaining at 0.01 µM: 96%
- mrna remaining at 0.1 µM: 83.9%
- mrna remaining at 1 µM: 74.2%
- mrna remaining at 10 µM: 43.8%
- inhibition at 0.01 µM: 5.46%
- inhibition at 0.1 µM: 22%
- inhibition at 1 µM: 35.2%
- inhibition at 10 µM: 76.7%

- IC50: 3.19 µM
SMILES: COc1cccc(-c2cc(O)n(-c3ccccn3)n2)c1 [Compound 18-001, 3-(3-Methoxyphenyl)-1-(Pyridin-2-yl)-1H-Pyrazol-5-ol]
- mrna remaining at 0.01 µM: 74.8%
- mrna remaining at 0.1 µM: 69.8%
- mrna remaining at 1 µM: 64.2%
- mrna remaining at 10 µM: 34.5%
- inhibition at 0.01 µM: 31%
- inhibition at 0.1 µM: 37.1%
- inhibition at 1 µM: 44%
- inhibition at 10 µM: 80.5%

- IC50: 0.105 µM
SMILES: Oc1cc(-c2cccc(I)c2)nn1-c1ccccn1 [Compound 18-082, 3-(3-iodophenyl)-1-(pyridin-2-yl)-1H-pyrazol-5-ol]
- mrna remaining at 0.01 µM: 71%
- mrna remaining at 0.1 µM: 60.5%
- mrna remaining at 1 µM: 39.1%
- mrna remaining at 10 µM: 31.2%
- inhibition at 0.01 µM: 39.5%
- inhibition at 0.1 µM: 53.8%
- inhibition at 1 µM: 83%
- inhibition at 10 µM: 93.7%

- IC50: 10.2 µM
SMILES: c1ccc(COc2c(Cc3ccccc3)c(-c3ccccc3)nn2-c2ccccn2)cc1 [Compound 18-233, 3-Phenyl-4-Benzyl-5-Benzyloxy-1-(2-Pyridinyl)Pyrazole, reference compound]
- mrna remaining at 0.01 µM: 93.3%
- mrna remaining at 0.1 µM: 75.7%
- mrna remaining at 1 µM: 71.2%
- mrna remaining at 10 µM: 65.6%
- inhibition at 0.01 µM: 8.23%
- inhibition at 0.1 µM: 29.9%
- inhibition at 1 µM: 35.4%
- inhibition at 10 µM: 42.3%
- expression of the extracellular matrix, collagen Iα1 (Col1α), in proximal tubular cells (result in words): decreased the expression level

- IC50: 0.227 µM
SMILES: Oc1cc(COc2ccc3ccccc3c2)nn1-c1ccccn1 [Compound 18-095, 3-((naphthalen-3-yloxy)methyl)-1-(pyridin-2-yl)-1H-pyrazol-5-ol]
- mrna remaining at 0.01 µM: 69.9%
- mrna remaining at 0.1 µM: 66.3%
- mrna remaining at 1 µM: 50.4%
- mrna remaining at 10 µM: 26.8%
- inhibition at 0.01 µM: 37.2%
- inhibition at 0.1 µM: 41.7%
- inhibition at 1 µM: 61.4%
- inhibition at 10 µM: 90.6%

- IC50: 2.14 µM
SMILES: Oc1cc(-c2ccc(Br)cc2)nn1-c1ccccn1 [Compound 18-066, 3-(4-bromophenyl)-1-(pyridin-2-yl)-1H-pyrazol-5-ol]
- mrna remaining at 0.01 µM: 78.5%
- mrna remaining at 0.1 µM: 71.7%
- mrna remaining at 1 µM: 72.6%
- mrna remaining at 10 µM: 58.3%
- inhibition at 0.01 µM: 30.2%
- inhibition at 0.1 µM: 39.8%
- inhibition at 1 µM: 38.5%
- inhibition at 10 µM: 58.6%
